Target: T1, wild-type LRRK2 (Homo sapiens, UniProt Q5S007)
T1 construct: DNA tag for qPCR detection (not a peptide; the protein part that carries it is not described); made in house; host or cells: HEK 293 cells (the same paragraph also describes T7 phage grown in E. coli BL21)
Assay: Inhibitory activity against LRRK2: competition binding to ligand-affinity beads, DNA-tagged kinase quantitated by qPCR
Conditions: % of ctrl; for remaining binding at 0.01 µM: 10 nM compound, read-out: LRRK2(WT) Remaining kinase activity(%) at 10 nM; for remaining binding at 0.05 µM: 50 nM compound, read-out: LRRK2(WT) Remaining kinase activity(%) at 50 nM
Description: Representative compounds synthesized in Example 1 were assayed for inhibitory activity against wild-type LRRK2 and mutant LRRK2 (G2019S), and the results are summarized in Tables 2 and 3. In brief, a T7 phase strain carrying the wild-type kinase consisting of amino acid residues from H970 to E2527 of human-derived LRRK2 (Accession no. NP_940980.3) or a T7 phase strain carrying the G2019S mutation kinase was infected into E. coli strain BL21 which was then grown until log phase. After infection with T7 phases (multiplicity of infection=0.4), the cells were cultured at 32° C. for 90-150 minutes while shaking. Then, E. coli lysates were centrifuged (6,000×g) and the supernatant was filtered through a 0.2-μm filter. The kinases were produced in HEK 293 cells. In this regard, DNA was tagged to obtain DNA-tagged kinases for qPCR detection. For use in analyzing the kinases, affinity resins were prepared by treating streptavidin-coated magnetic beads with biotinylated small molecule ligands at room temperature for 30 minutes. Then, the liganded beads were blocked with an excess of biotin and washed with a blocking buffer (SeaBlock (Pierce), 1% BSA, 0.05% Tween 20, 1 mM DTT) to remove unbound ligands and thus to reduce the binding of non-specific phages. […] After one hour of incubation, the affinity beads were washed with a wash buffer (1×PBS, 0.05% Tween 20), resuspended in an elution buffer (1×PBS, 0.05% Tween 20, 0.5 μM non-biotinylated affinity ligand), and incubated at room temperature for 30 minutes while shaking. Afterwards, concentrations of wild-type LRRK2 and mutant LRRK2 (G2019S) in the eluted samples were quantitated by qPCR. Activity values are expressed as percentages relative to the control (% of ctrl). The compounds used in the activity assay were prepared into 40× stocks in 100% DMSO. The stocks were directly diluted during analysis procedures.
Table 2 includes inhibitory activities of the representative compounds of the present disclosure at 100 nM against wild-type LRRK2 and mutant LRRK2 (G2019S) while Table 3 includes inhibitory activities of the representative compounds at 10 nM and 50 nM against wild-type LRRK2. (+++ less than 10%; ++ less than 30%; + less than 50%; −50% or higher)

T1 sequence (Q5S007 970-2527): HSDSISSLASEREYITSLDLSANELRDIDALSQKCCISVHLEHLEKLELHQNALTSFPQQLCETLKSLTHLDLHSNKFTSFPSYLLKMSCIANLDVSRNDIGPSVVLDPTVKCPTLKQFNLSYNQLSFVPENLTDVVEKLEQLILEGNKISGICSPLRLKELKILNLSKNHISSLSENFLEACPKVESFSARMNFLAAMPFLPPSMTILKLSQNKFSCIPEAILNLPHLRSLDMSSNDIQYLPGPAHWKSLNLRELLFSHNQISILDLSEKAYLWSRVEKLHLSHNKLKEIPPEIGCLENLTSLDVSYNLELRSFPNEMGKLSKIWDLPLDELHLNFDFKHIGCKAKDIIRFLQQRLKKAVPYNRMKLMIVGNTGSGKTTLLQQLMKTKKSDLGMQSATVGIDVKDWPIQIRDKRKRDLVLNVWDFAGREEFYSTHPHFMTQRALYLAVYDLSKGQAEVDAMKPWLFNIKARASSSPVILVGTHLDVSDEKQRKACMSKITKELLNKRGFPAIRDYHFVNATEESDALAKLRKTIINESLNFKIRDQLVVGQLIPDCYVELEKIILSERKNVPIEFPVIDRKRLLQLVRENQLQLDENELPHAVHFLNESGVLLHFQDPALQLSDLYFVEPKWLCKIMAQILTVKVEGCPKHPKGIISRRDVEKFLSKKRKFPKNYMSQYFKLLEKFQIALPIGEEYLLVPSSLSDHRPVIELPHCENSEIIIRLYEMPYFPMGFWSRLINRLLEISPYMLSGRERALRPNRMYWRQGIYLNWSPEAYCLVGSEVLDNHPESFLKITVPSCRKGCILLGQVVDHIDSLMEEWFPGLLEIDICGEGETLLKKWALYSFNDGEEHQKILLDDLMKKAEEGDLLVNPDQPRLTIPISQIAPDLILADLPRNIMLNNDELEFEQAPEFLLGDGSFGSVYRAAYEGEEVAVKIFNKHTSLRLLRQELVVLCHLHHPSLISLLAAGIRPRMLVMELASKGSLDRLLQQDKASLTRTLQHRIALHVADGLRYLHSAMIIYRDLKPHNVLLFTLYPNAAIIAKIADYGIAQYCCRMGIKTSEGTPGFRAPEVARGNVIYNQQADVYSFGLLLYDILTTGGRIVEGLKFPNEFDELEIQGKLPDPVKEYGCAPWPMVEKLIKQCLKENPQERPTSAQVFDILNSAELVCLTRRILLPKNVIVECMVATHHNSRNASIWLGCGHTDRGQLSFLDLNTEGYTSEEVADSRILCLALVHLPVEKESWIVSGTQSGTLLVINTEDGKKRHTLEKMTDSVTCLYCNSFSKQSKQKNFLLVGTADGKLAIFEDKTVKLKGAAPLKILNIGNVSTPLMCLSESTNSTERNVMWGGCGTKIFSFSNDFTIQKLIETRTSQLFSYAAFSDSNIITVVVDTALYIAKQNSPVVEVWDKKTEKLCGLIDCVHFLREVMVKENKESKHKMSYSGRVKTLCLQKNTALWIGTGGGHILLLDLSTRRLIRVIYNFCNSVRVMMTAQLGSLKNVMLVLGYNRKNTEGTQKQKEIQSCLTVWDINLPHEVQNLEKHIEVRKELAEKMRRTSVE

SMILES	remaining binding at 0.01 µM	remaining binding at 0.05 µM
COc1cc(C(=O)N2[C@@H]3CC[C@H]2COC3)ccc1Nc1ncc(Cl)c(-c2cnn(C(C)C)c2)n1 [Compound 95, ((1R,5S)-3-oxa-8-azabicyclo[3.2.1]octan-8-yl)(4-((5-chloro-4-(1-isopropyl-1H-pyrazol-4-yl)pyrimidin-2-yl)amino)-3-methoxyphenyl)methanone]	≥ 50%	< 30%
COc1cc(C(=O)NC2CCN(C)CC2)ccc1Nc1ncc(Cl)c(-c2cnn(C(C)(C)C)c2)n1 [Compound 96, 4-((4-(1-(tert-butyl)-1H-pyrazol-4-yl)-5-chloropyrimidin-2-yl)amino)-3-methoxy-N -(1-methylpiperidin-4-yl)benzamide]	≥ 50%	< 30%
COc1cc(C(=S)N2CCN(C)CC2)c(F)cc1Nc1ncc(Cl)c(-c2cnn(C(C)C)c2)n1 [Compound 102, (4-((5-chloro-4-(1-isopropyl-1H-pyrazol-4-yl)pyrimidin-2-yl)amino)-2-fluoro-5-methoxyphenyl)(4-methylpiperazin-1-yl) methanethione]	< 50%	< 10%
COc1cc(C(=O)N2CCN(C)CC2)c(F)cc1Nc1ncc(Cl)c(-c2cnn(C(C)C)c2)n1 [Compound 104, (4-((5-chloro-4-(1-isopropyl-1H-pyrazol-4-yl)pyrimidin-2-yl)amino)-2-fluoro-5-methoxyphenyl)(4-methylpiperazin-1-yl)methanone]	≥ 50%	< 30%
COc1cc(C(=S)N2CCOCC2)c(F)cc1Nc1ncc(Cl)c(-c2cnn(C(C)C)c2)n1 [Compound 106, (4-((5-chloro-4-(1-isopropyl-1H-pyrazol-4-yl)pyrimidin-2-yl)amino)-2-fluoro-5-methoxyphenyl)(morpholino) methanethione]	≥ 50%	< 30%
COc1cc(C(=O)Nc2ccccc2)ccc1Nc1ncc(Cl)c(-c2cnn(C(C)C)c2)n1 [Compound 112, 4-((5-chloro-4-(1-isopropyl-1H-pyrazol-4-yl)pyrimidin-2-yl)amino)-3-methoxy-N-phenylbenzamide]	< 50%	< 30%
COc1cc(C(=O)NCc2ccc(C)cc2)ccc1Nc1ncc(Cl)c(-c2cnn(C(C)C)c2)n1 [Compound 126, 4-((5-chloro-4-(1-isopropyl-1H-pyrazol-4-yl)pyrimidin-2-yl)amino)-3-methoxy-N-(4-methylbenzyl)benzamide]	≥ 50%	< 50%
COc1cc(C(=O)Nc2ccc(N(C)C)cc2)ccc1Nc1ncc(Cl)c(-c2cnn(C(C)C)c2)n1 [Compound 127, 4-((5-chloro-4-(1-isopropyl-1H-pyrazol-4-yl)pyrimidin-2-yl)amino)-N-(4-(dimethylamino)phenyl)-3-methoxybenzamide]	< 50%	< 30%
COc1cc(C(=O)NCc2ccc(C#N)cc2)ccc1Nc1ncc(Cl)c(-c2cnn(C(C)C)c2)n1 [Compound 128, 4-((5-chloro-4-(1-isopropyl-1H-pyrazol-4-yl)pyrimidin-2-yl)amino)-N-(4-cyanobenzyl)-3-methoxybenzamide]	≥ 50%	< 50%
COc1cc(C(=O)NC2Cc3ccccc3C2)ccc1Nc1ncc(Cl)c(-c2cnn(C(C)C)c2)n1 [Compound 129, 4-((5-chloro-4-(1-isopropyl-1H-pyrazol-4-yl)pyrimidin-2-yl)amino)-N-(2,3-dihydro-1H-inden-2-yl)-3-methoxybenzamide]	≥ 50%	< 50%

Now from value to compound:

remaining binding at 0.01 µM	remaining binding at 0.05 µM	SMILES
≥ 50%	< 30%	COc1cc(C(=O)NC2CCC(O)CC2)ccc1Nc1ncc(Cl)c(-c2cnn(C(C)C)c2)n1 (stereo not shown) [Compound 91, 4-((5-chloro-4-(1-isopropyl-1H-pyrazol-4-yl)pyrimidin-2-yl)amino)-N-((1r,4r)-4-hydroxycyclohexyl)-3-methoxybenzamide]
< 50%	< 10%	COc1cc(C(=O)NC2CCC(N(C)C)CC2)ccc1Nc1ncc(Cl)c(-c2cnn(C(C)C)c2)n1 (stereo not shown) [Compound 93, 4-((5-chloro-4-(1-isopropyl-1H-pyrazol-4-yl)pyrimidin-2-yl)amino)-N-(4-(dimethylamino)cyclohexyl)-3-methoxybenzamide]
< 30%	< 10%	COc1cc(C(=O)N2CCC(N(C)C)CC2)ccc1Nc1ncc(Cl)c(-c2cnn(C(C)C)c2)n1 [Compound 94, (4-((5-chloro-4-(1-isopropyl-1H-pyrazol-4-yl)pyrimidin-2-yl)amino)-3-methoxyphenyl)(4-(dimethylamino)piperidin-1-yl)methanone]
< 30%	< 10%	COc1cc(C(=O)N2CC3CN(C)CC3C2)ccc1Nc1ncc(Cl)c(-c2cnn(C(C)C)c2)n1 (stereo not shown) [Compound 98, (4-((5-chloro-4-(1-isopropyl-1H-pyrazol-4-yl)pyrimidin-2-yl)amino)-3-methoxyphenyl)(5-methylhexahydropyrrolo[3,4-c]pyrrol-2(1H)-yl)methanone]
< 50%	< 30%	COc1cc(C(=O)NC2CCN(C(C)C)CC2)ccc1Nc1ncc(Cl)c(-c2cnn(C(C)C)c2)n1 [Compound 99, 4-((5-chloro-4-(1-isopropyl-1H-pyrazol-4-yl)pyrimidin-2-yl)amino)-N-(1-isopropylpiperidin-4-yl)-3-methoxybenzamide]
≥ 50%	< 50%	COc1cc(C(=O)N(C)C)ccc1Nc1ncc(Cl)c(-c2cnn(C(C)C)c2)n1 [Compound 101, 4-((5-chloro-4-(1-isopropyl-1H-pyrazol-4-yl)pyrimidin-2-yl)amino)-3-methoxy-N,N-dimethylbenzamide]
< 30%	< 10%	COc1cc(C(=S)N2CCN(C)CC2)ccc1Nc1ncc(Cl)c(-c2cnn(C(C)C)c2)n1 [Compound 103, (4-((5-chloro-4-(1-isopropyl-1H-pyrazol-4-yl)pyrimidin-2-yl)amino)-3-methoxyphenyl)(4-methylpiperazin-1-yl) methanethione]
< 50%	< 30%	CC(C)n1cc(-c2nc(Nc3ccc(C(=O)N4CCOCC4)cc3OC(F)F)ncc2Cl)cn1 [Compound 105, (4-((5-chloro-4-(1-isopropyl-1H-pyrazol-4-yl)pyrimidin-2-yl)amino)-3-(difluoromethoxy)phenyl)(morpholino)methanone]
≥ 50%	< 30%	CC(C)n1cc(-c2nc(Nc3ccc(C(=O)N4CCN(C)CC4)cc3OC(F)F)ncc2Cl)cn1 [Compound 108, (4-((5-chloro-4-(1-isopropyl-1H-pyrazol-4-yl)pyrimidin-2-yl)amino)-3-(difluoromethoxy)phenyl)(4-methylpiperazin-1-yl)methanone]
≥ 50%	< 30%	Cc1cc(C(=O)N2CCN(C)CC2)ccc1Nc1ncc(Cl)c(-c2cnn(C(C)C)c2)n1 [Compound 109, (4-((5-chloro-4-(1-isopropyl-1H-pyrazol-4-yl)pyrimidin-2-yl)amino)-3-methylphenyl)(4-methylpiperazin-1-yl)methanone]
< 50%	< 10%	COc1cc(C(=O)N2CCC(N(C)C)CC2)c(F)cc1Nc1ncc(Cl)c(-c2cnn(C(C)C)c2)n1 [Compound 110, (4-((5-chloro-4-(1-isopropyl-1H-pyrazol-4-yl)pyrimidin-2-yl)amino)-2-fluoro-5-methoxyphenyl)(4-(dimethylamino)piperidin-1-yl)methanone]
≥ 50%	< 30%	COc1cc(C(=O)NCC2CCOC2)ccc1Nc1ncc(Cl)c(-c2cnn(C(C)C)c2)n1 (stereo not shown) [Compound 130, 4-((5-chloro-4-(1-isopropyl-1H-pyrazol-4-yl)pyrimidin-2-yl)amino)-3-methoxy-N-((tetrahydrofuran-3-yl)methyl)benzamide]
≥ 50%	< 50%	COc1cc(C(=O)NCCO)ccc1Nc1ncc(Cl)c(-c2cnn(C(C)C)c2)n1 [Compound 138, 4-((5-chloro-4-(1-isopropyl-1H-pyrazol-4-yl)pyrimidin-2-yl)amino)-N-(2-hydroxyethyl)-3-methoxybenzamide]
